Measurements as given in PubChem BioAssay AID588786 (The Scripps Research Institute Molecular Screening Center, 2011).
Calls of active or inactive are those of the source. No rule for the calls is given here.

Molecular target: SARS coronavirus 3C-like protease (3CLpro)
Experiment: SARS 3CLpro protease inhibitor potency, late-stage follow-up, biochemical, fluorescence, dose response, set 4 (AID 588786)
Conditions: recombinant 3CLpro, fluorogenic peptide cleavage

| Structure (SMILES) | IC50 |
| --- | --- |
| Cc1noc(C)c1-c1ccc(N(C(=O)c2ccco2)C(C(=O)NC(C)(C)C)c2cccnc2)cc1 (stereo not given) | inactive |
| CC(C)(C)NC(=O)C(c1cccnc1)N(C(=O)c1ccco1)c1ccc(-c2cccc(F)c2F)cc1 (stereo not given) | 3.2 µM |
| CC(C)(C)NC(=O)C(c1cccnc1)N(C(=O)c1ccco1)c1ccc(OCc2ccccc2)cc1 (stereo not given) | inactive |
| COc1cccc(Oc2ccc(N(C(=O)c3ccco3)C(C(=O)NC(C)(C)C)c3cccnc3)cc2)c1 (stereo not given) | inactive |
| CC(C)(C)NC(=O)C(c1cccnc1)N(C(=O)c1ccco1)c1ccc(-c2ccccc2)cc1 (stereo not given) | 2.3 µM |
| CC(C)(C)NC(=O)C(c1cccnc1)N(C(=O)c1ccco1)c1ccc(I)cc1 (stereo not given) | inactive |
| CC(C)(C)NC(=O)C(c1cccnc1)N(C(=O)c1ccco1)c1ccc(-c2cncnc2)cc1 (stereo not given) | 4.5 µM |
| CC(C)(C)NC(=O)C(c1cccnc1)N(C(=O)c1ccco1)c1ccc(-c2cccnc2)cc1 (stereo not given) | inactive |
| CC(C)(C)c1ccc(N(Cc2cccnc2)C(=O)c2cnc[nH]2)cc1 | inactive |
| CC(C)(C)NC(=O)C(c1cccnc1)N(C(=O)c1ccco1)c1ccc(-c2cccn2C(=O)OC(C)(C)C)cc1 (stereo not given) | inactive |
